In patent publication US7994200B2, “Cycloalkane-substituted pyrazoline derivatives, their preparation and use as medicaments” (Laboratorios del Dr. Esteve, S.A., priority 2005, dated 2011):
Read-outs that look alike come from different tables or passages of the source.

Assays:
CB1-Receptor = biological target: T1, CB1-Receptor (Homo sapiens, UniProt P21554); test: In-vitro determination of affinity to CB1/CB2-Receptors, radioligand [3H]-CP55940; assay type: binding
T1 construct: purchased Receptor Biology, Inc
Method: Pharmacological Data: Pharmacological Methods I. In-vitro determination of affinity to CB1/CB2-Receptors
The in-vitro determination of the affinity of the inventive quaternary ammonium salts of substituted pyrazoline compounds to CB1/CB2-Receptors is carried out as described in the publication of Ruth A. Ross, Heather C. Brockie et al., “Agonist-inverse agonist characterization at CB1 and CB2 cannabinoid receptors of L-759633, L759656 and AM630”, British Journal of Pharmacology, 126, 665-672, (1999), whereby the transfected human CB1 and CB2 receptors of Receptor Biology, Inc. are used. The radioligand used for both receptors is [^3H]-CP55940. The respective parts of the description are hereby incorporated by reference and forms part of the present disclosure.
The affinity of the inventive substituted pyrazoline compounds to CB1/CB2 receptors was determined as described above.

[1] = biological target: recombinant human cannabinoid 1 receptor (CB1) (Homo sapiens, UniProt P21554); test: [35S]GTPγS binding antagonistic assay against WIN 55,212-2, CHO cell membranes; assay type: biochemical; conditions: compound at 1 μM against WIN 55,212-2; 100% = effect of internal standard CB1-antagonist
Method: The percentage of catalepsy is determined according of the following formula: % Catalepsy=arithmetic mean/6×100 Antagonistic Assay: Materials and Methods. Membrane Preparation:
Chinese hamster ovary (CHO) cells stably expressing recombinant human cannabinoid 1 receptor (CB1) were cultured in nutrient mixture Ham's F 12 supplemented with 10% heat-inactivated fetal bovine serum, 2 mM L-glutamine, 50 U/ml penicillin, 50 U/ml streptomycin and 0.5 mg/ml geneticin. In order to obtain cells, culture flasks were washed twice with phosphate buffered saline and scraped. Then, cells were collected by centrifugation (200×g, 10 min) and stored dry at −80° C. Cells were homogenized in ice-cold 20 mM HEPES, 10 mM EDTA (pH 7.5) and centrifuged at 40,000×g for 15 min at 4° C. The pellet was resuspended in 20 mM HEPES, 0.1 mM EDTA (pH 7.5) and centrifuged for 15 min at 4° C. The final pellet was resuspended in 20 mM HEPES, 0.1 mM EDTA (pH 7.5), and divided in aliquots and stored at −80° C. until use.
[^35S]GTPγS Binding Assay:
The reaction was performed in 96-well plates. […] The incubation was terminated by rapid filtration through Millipore Multiscreen glass fiber FB, and rinsed two-times with ice-cold assay buffer. Filter plates were dried and 30 μl of scintillation liquid was added. Radioactivity was determined using Wallac Microbeta Trilux. Each experiment was performed at least in duplicate.
The average of basal [^35S]GTPγS binding was subtracted from all binding data.

[2] = In vivo testing for antiobesic activity, acute treatment; conditions: rats, acute oral administration
Method: III. In Vivo Testing for Antiobesic Activity a) Accute-Treatment
Normally handled rats were habituated to a reversed cycle 12/12 h, and the compound as well as saline was acutely orally administered. After administration the cumulated food intake (g) was measured at 6 h and 23 h. Following that the difference in body weight between control and compound treated animals was measured.

[3] = transfected human receptors, [3H]-CP55940, read-out: IC50

T1 sequence (P21554 whole entry): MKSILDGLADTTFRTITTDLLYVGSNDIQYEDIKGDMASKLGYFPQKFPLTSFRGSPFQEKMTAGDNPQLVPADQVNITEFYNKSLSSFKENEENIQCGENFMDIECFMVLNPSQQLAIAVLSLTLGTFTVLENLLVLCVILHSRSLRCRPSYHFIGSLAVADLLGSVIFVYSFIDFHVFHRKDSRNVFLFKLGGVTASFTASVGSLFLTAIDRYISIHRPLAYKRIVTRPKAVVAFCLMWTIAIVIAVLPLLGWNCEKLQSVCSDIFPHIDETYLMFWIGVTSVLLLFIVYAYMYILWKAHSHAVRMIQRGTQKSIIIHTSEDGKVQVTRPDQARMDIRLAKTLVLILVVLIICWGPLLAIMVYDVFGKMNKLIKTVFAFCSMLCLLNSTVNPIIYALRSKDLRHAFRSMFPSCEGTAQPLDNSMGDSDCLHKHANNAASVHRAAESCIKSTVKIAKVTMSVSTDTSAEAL
Chain of recombinant human cannabinoid 1 receptor (CB1) (P21554 whole entry): as above

SMILES	IC50 (CB1-Receptor; [3])	Antagonism (%) [1]	IC50 (CB1-Receptor)	activity reducing body weight [2]
C[C@H]1C(C(=O)NC2CCCCCC2)=NN(c2ccc(Cl)cc2Cl)[C@H]1c1ccc(Cl)cc1 (relative stereo) [Example 1, cis-5-(4-chlorophenyl)-N-cycloheptyl-1-(2,4-dichlorophenyl)-4-methyl-4,5-dihydro-1H-pyrazole-3-carboxamide]	0.0319 µM	79 ± 18%	–	–
C[C@H]1C(C(=O)NC2CCCCCC2)=NN(c2ccc(Cl)cc2Cl)[C@H]1c1ccc(Br)cc1 (relative stereo) [Example 5, cis-5-(4-bromophenyl)-N-cycloheptyl-1-(2,4-dichlorophenyl)-4-methyl-4,5-dihydro-1H-pyrazole-3-carboxamide]	0.03 µM	58.1%	–	–
C[C@H]1C(C(=O)NC2CCCCCC2)=NN(c2ccc(Cl)cc2Cl)[C@H]1c1ccc(F)cc1 (relative stereo) [Example 7, cis-N-cycloheptyl-1-(2,4-dichlorophenyl)-5-(4-fluorophenyl)-4-methyl-4,5-dihydro-1H-pyrazole-3-carboxamide]	0.112 µM	83 ± 0%	–	–
COc1ccc([C@H]2[C@@H](C)C(C(=O)NC3CCCCCC3)=NN2c2ccc(Cl)cc2Cl)cc1 (relative stereo) [Example 11, cis-N-cycloheptyl-1-(2,4-dichlorophenyl)-5-(4-methoxyphenyl)-4-methyl-4,5-dihydro-1H-pyrazole-3-carboxamide]	–	78 ± 8%	0.066 µM	–
C[C@H]1C(C(=O)N[C@@H]2CCCC[C@H]2O)=NN(c2ccc(Cl)cc2Cl)[C@H]1c1ccc(Cl)cc1 [Example 15, (4R,5R)-5-(4-chlorophenyl)-1-(2,4-dichlorophenyl)-N-((1R,2R)-2-hydroxycyclohexyl)-4-methyl-4,5-dihydro-1H-pyrazole-3-carboxamide]	–	–	–	good activity
C[C@H]1C(C(=O)N[C@H]2CCCC[C@@H]2O)=NN(c2ccc(Cl)cc2Cl)[C@H]1c1ccc(Cl)cc1 [Example 17, (4R,5R)-5-(4-chlorophenyl)-1-(2,4-dichlorophenyl)-N-((1S,2S)-2-hydroxycyclohexyl)-4-methyl-4,5-dihydro-1H-pyrazole-3-carboxamide]	–	13%	–	–
C[C@@H]1C(C(=O)N[C@H]2CCCC[C@@H]2O)=NN(c2ccc(Cl)cc2Cl)[C@@H]1c1ccc(Cl)cc1 [Example 18, (4S,5S)-5-(4-chlorophenyl)-1-(2,4-dichlorophenyl)-N-((1S,2S)-2-hydroxycyclohexyl)-4-methyl-4,5-dihydro-1H-pyrazole-3-carboxamide]	0.069 µM	93 ± 8%	–	good activity
COc1ccc([C@H]2[C@@H](C)C(C(=O)N[C@H]3CCCC[C@@H]3O)=NN2c2ccc(Cl)cc2Cl)cc1 [Example 29, (4R,5R)-5-(4-methoxyphenyl)-1-(2,4-dichlorophenyl)-N-((1S,2S)-2-hydroxycyclohexyl)-4-methyl-4,5-dihydro-1H-pyrazole-3-carboxamide]	–	37%	–	–
COc1ccc([C@@H]2[C@H](C)C(C(=O)N[C@H]3CCCC[C@@H]3O)=NN2c2ccc(Cl)cc2Cl)cc1 [Example 30, (4S,5S)-5-(4-methoxyphenyl)-1-(2,4-dichlorophenyl)-N-((1S,2S)-2-hydroxycyclohexyl)-4-methyl-4,5-dihydro-1H-pyrazole-3-carboxamide]	–	85%	–	–
